Test results as given in patent US20250263376A1, “(E)-N-CINNAMOYLAMINOALKANOLS WITH MELANOGENESIS INHIBITORY ACTIVITY” (Uniwersytet Jagiellonski, priority 2024, published 2025).

Experiments:
[1] = Lipophilicity coefficient RM0 by reversed phase thin layer chromatography; assay type: physicochemical; conditions: RP-18 TLC, methanol/phosphate buffer pH=7.4
Description: Confirmation of the identity and purity of the obtained compounds consisted in the registration and interpretation of 1H NMR and 13C NMR spectra (the spectra were recorded using an ECZR 500 MHZ (JEOL) series FT-NMR spectrophotometer), as well as the registration and interpretation of LC-MS spectra (the spectra were recorded using Acquita UPLC system (Waters) coupled with a Waters TQD mass spectrometer). The melting point was measured using the open capillary method in the IA9300 device (Electrothermal). The lipophilicity coefficient RM0 was determined by reversed phase thin layer chromatography. In the study, aluminum plates 20×20 cm covered with modified silica gel RP-18 F254 (Merck) were used as the solid phase. The mobile phase consisted of solutions of methanol and 100 mM phosphate buffer (pH=7.4), characterized by a variable methanol content ranging from 95 to 65% (v/v). The tested compounds were dissolved in methanol to obtain solutions with a concentration of 1 mg/mL. Then, […] of the solutions prepared in this way were transferred to the starting line on aluminum plates, which were then placed in chromatographic chambers previously saturated with mobile phase vapors for at least 1 hour. All activities, including the development of chromatograms, were carried out at room temperature. After developing the chromatograms to approximately 1-2 cm from the end of the plate, the plates were dried and then the distance traveled by the tested compounds was visualized under UV light (λ=254 nm). The experiment was performed in duplicate for the specified conditions. For all samples, Rf was calculated according to the formula Rf=a/b, where a—the distance traveled by the tested compound, b—the distance traveled by the mobile phase. Then, the RM parameter was calculated for all samples according to the formula RM=log (1/Rf−1), obtaining a linear relationship between the RM values and the methanol concentration in the mobile phase. The log P coefficient was also calculated using the following computer programs: ACD/ChemSketch 2020.1.2 and ChemDraw 20.0.0.41.

tyrosinase from mushroom [2] = target: T1, tyrosinase from mushroom (Agaricus bisporus, UniProt C7FF04); test: Inhibition of commercial mushroom tyrosinase, substrate L-DOPA; assay type: biochemical; conditions: 500 μM; read-out: Tyrosinase inhibition with L-DOPA [%]
T1 sequence (C7FF04 2-392): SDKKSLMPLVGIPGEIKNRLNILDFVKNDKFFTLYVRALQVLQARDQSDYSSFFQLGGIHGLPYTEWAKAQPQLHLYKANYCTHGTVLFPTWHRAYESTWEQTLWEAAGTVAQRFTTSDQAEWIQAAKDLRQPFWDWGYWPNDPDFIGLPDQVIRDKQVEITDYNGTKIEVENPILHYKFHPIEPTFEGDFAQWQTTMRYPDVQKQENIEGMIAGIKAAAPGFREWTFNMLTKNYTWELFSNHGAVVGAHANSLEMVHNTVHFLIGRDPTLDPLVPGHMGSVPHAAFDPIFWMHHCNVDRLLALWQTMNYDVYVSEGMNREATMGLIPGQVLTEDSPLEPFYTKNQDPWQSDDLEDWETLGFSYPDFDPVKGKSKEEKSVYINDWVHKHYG
T1 sequence (G1K3P4 entry or part of it, further chain): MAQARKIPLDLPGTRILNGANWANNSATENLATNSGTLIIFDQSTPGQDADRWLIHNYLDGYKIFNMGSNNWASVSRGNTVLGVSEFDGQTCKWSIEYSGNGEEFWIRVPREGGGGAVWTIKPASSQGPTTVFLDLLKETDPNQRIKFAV
Description: (§1) Studies on the Inhibition of the Activity of Commercial Tyrosinase from Mushroom (Sigma: T3824)
(§2) The following substrates were used for the enzymatic reaction: L-tyrosine and L-3,4-dihyroxyphenylalanine (L-DOPA). Both substrates were used in independent experiments. According to the literature, the use of L-DOPA enables the assessment of tyrosinase diphenolase activity, and L-tyrosine—the tyrosinase monophenolase activity. The determinations were performed in 96-well plates, in each well there was placed: 170 μL or 127.5 μL of 50 mM phosphate buffer (pH=6.8) with tyrosinase (1U/well or 3U/well) and 10 μL of a solution of the tested compound in DMSO (the final concentration in the well was 500 μM, 250 μM or 125 μM). The negative control used 10 u L of pure solvent (DMSO). To initiate the reaction, an appropriate substrate was added: L-tyrosine (62.5 μL of solution in phosphate buffer) or L-DOPA (20 μL of solution in phosphate buffer). After a 25-minute incubation, the absorbance was measured at 475 nm using a microplate reader. The percentage of inhibition of tyrosinase activity was calculated using the formula: [(AC−AT)/[…], where AC—is the absorbance of the negative control, AT—is the absorbance of the sample containing the tested compound.

[3] = system: B16-F10 murine melanoma cell line; test: Cytotoxicity (MTT) in B16-F10 murine melanoma cells; assay type: cell-based; conditions: 48 h
Description: Cytotoxicity Assessment in the B16-F10 Murine Melanoma Cell Line (ATTC CRL-6745)—Preliminary Safety Assessment for Subsequent Studies
In order to determine safe doses of compounds for testing the inhibition of melanogenesis in a murine melanoma cell line, cytotoxicity tests were performed. Cytotoxicity was determined by the colorimetric method using MTT ([3-(4,5-dimethyl-2-thiazolyl)-2,5-diphenyl-2H-tetrazolium bromide, Sigma M5655). For this purpose, cells were transferred to 96-well plates in an amount of 5000/well. After 24 h of culture in an incubator in F10-Ham medium with 1% FBS, the tested compounds at various concentrations were added to the wells together with fresh medium. DMSO was added to the medium in a negative control. The MTT test was performed after further culture for 48 h. Then the medium was removed and the formed formazan crystals were dissolved in DMSO. The absorbance was measured at 570 nm in a plate reader and the result was compared to the control (DMSO), which was 100%. The percentage of viability was calculated using the formula: [AT/AC*100], where AT is the absorbance of the test sample, AC—absorbance of the control sample.

tyrosinase from mushroom [4] = target: T1, tyrosinase from mushroom; test: Inhibition of commercial mushroom tyrosinase, substrate L-tyrosine; assay type: biochemical; conditions: 500 μM; read-out: Tyrosinase inhibition with L-tyrosine [%]
Description: as §1, §2

| Structure (SMILES) | RM0 [1] | inhibition at 500 µM (tyrosinase from mushroom [2]) [%] | Cytotoxicity study in B16F10 cells, % viability ([3]; 150 μM) [%] | Cytotoxicity study in B16F10 cells, % viability ([3]; 200 μM) [%] | Cytotoxicity study in B16F10 cells, % viability ([3]; 250 μM) [%] | inhibition at 500 µM (tyrosinase from mushroom [4]) [%] | Cytotoxicity study in B16F10 cells, % viability ([3]; 12.5 μM) [%] | Cytotoxicity study in B16F10 cells, % viability ([3]; 25 μM) [%] | Cytotoxicity study in B16F10 cells, % viability ([3]; 50 μM) [%] |
| --- | --- | --- | --- | --- | --- | --- | --- | --- | --- |
| CCC(CO)NC(=O)/C=C/c1ccc(Cl)cc1Cl (stereo not drawn) [H-285/20, (2E)-3-(2,4-dichlorophenyl)-N-(1-hydroxybutan-2-yl)prop-2-enamide] | 3.08 | 0.21 ± 5.64 | 84.2 | 74.8 | 24.6 | 14.6 ± 1.63 | – | – | – |
| O=C(/C=C/c1ccc(Cl)cc1Cl)NCCCO [H-296/20, (2E)-3-(2,4-dichlorophenyl)-N-(3-hydroxypropyl)prop-2-enamide] | 2.11 | 18.6 ± 1.67 | 67.0 | 57.0 | 38.3 | 17.9 ± 7.36 | – | – | – |
| O=C(/C=C/c1ccc(Cl)cc1Cl)NCCCCCO [H-297/20, (2E)-3-(2,4-dichlorophenyl)-N-(5-hydroxypentyl)prop-2-enamide] | 3.08 | 20.5 ± 2.84 | 102.3 | 73.6 | 88.5 | 19.1 ± 2.53 | – | – | – |
| O=C(/C=C/c1ccc(Cl)cc1Cl)NCCCCO [H-298/20, (2E)-3-(2,4-dichlorophenyl)-N-(4-hydroxybutyl)prop-2-enamide] | 2.78 | 11.2 ± 2.78 | 46.5 | 40.6 | 37.4 | 20 ± 2.96 | – | – | – |
| O=C(/C=C/c1ccc(Cl)cc1Cl)N1CCC(O)CC1 [H-310/20, (2E)-3-(2,4-dichlorophenyl)-1-(4-hydroxypiperidin-1-yl)prop-2-en-1-one] | 2.80 | 7.23 ± 0.81 | 89.5 | 100.4 | 93.0 | 19.2 ± 3.44 | – | – | – |
| CCC(O)CNC(=O)/C=C/c1ccc(Cl)cc1Cl (stereo not drawn) [H-320/21, (2E)-3-(2,4-dichlorophenyl)-N-(2-hydroxybutyl)prop-2-enamide] | 3.08 | 5.8 ± 3.04 | 101.7 | 90.8 | 33.9 | 24.4 ± 8.05 | – | – | – |
| O=C(/C=C/c1ccc(Cl)cc1)NCCCCO [H-331/21, (2E)-3-(4-chlorophenyl)-N-(4-hydroxybutyl)prop-2-enamide] | 2.14 | 64.31 ± 0.21 | 32.7 | 51.9 | 52.7 | 82.5 ± 0.87 | 49.0 | 47.8 | 54.2 |
| CCC(CO)NC(=O)/C=C/c1ccc(C)cc1 (stereo not drawn) [H-409/21, (2E)-N-(1-hydroxybutan-2-yl)-3-(4-methylphenyl)prop-2-enamide] | 2.49 | 21.8 ± 2.31 | 83.2 | 95.3 | 103.4 | 15.3 ± 8.27 | – | – | – |
| Cc1ccc(/C=C/C(=O)NCCCO)cc1 [H-410/21, (2E)-N-(3-hydroxypropyl)-3-(4-methylphenyl)prop-2-enamide] | 2.04 | 17 ± 5.66 | 88.8 | 90.7 | 79.8 | 0.51 ± 5.4 | – | – | – |
